Results as given in the NIST ThermoML archive (doi:10.1016/j.jct.2014.03.021).
Numbers after ± are expanded uncertainties.

Assay: xn = mol fraction of the nth substance listed
Settings: 101 kPa, Liquid; for mass density: Vibrating tube method; for electrical conductivity: Alternating current cell with electrodes; for speed of sound: Frequency=3 MHz, Sing-around technique in a fixed-path interferometer

C[C@H](O)C(=O)[O-].C[N+](C)(C)CCO + O
Settings	electrical conductivity, 303.15 K [S/m]	electrical conductivity, 308.15 K [S/m]	mass density, 298.15 K [kg/m3]	mass density, 303.15 K [kg/m3]	speed of sound, 303.15 K [m/s]	speed of sound, 308.15 K [m/s]
x1 = 0.0258	3.68 ± 0.22	4 ± 0.24	–	1033.07 ± 0.42	1669 ± 2.2	1671.7 ± 2.1
x1 = 0.0511	3.86 ± 0.23	4.22 ± 0.25	–	1058.28 ± 0.4	1779.1 ± 2.1	1776 ± 2
x1 = 0.074	3.23 ± 0.19	3.67 ± 0.22	–	1077.82 ± 0.3	1858.9 ± 1.7	1851.6 ± 1.7
x1 = 0.1027	2.57 ± 0.15	2.95 ± 0.18	–	1092.58 ± 0.25	1910.5 ± 1.6	1900.3 ± 1.5
x1 = 0.1443	–	–	–	1105.56 ± 0.28	1954.1 ± 1.6	1940.6 ± 1.6
x1 = 0.1965	1.19 ± 0.071	1.44 ± 0.087	1119.53 ± 0.41	1116.28 ± 0.4	1961.5 ± 1.7	1948.6 ± 1.7
x1 = 0.2705	–	–	1128.8 ± 0.65	1125.54 ± 0.65	1958 ± 2	1945.2 ± 2
x1 = 0.2957	0.497 ± 0.03	0.622 ± 0.037	1130.7 ± 0.75	1127.45 ± 0.75	1957.9 ± 2.1	1944.6 ± 2.1
x1 = 0.3897	–	–	1135.35 ± 1.2	1132.15 ± 1.2	1944.6 ± 2.5	1932 ± 2.4
x1 = 0.5347	0.145 ± 0.009	0.194 ± 0.012	1137.68 ± 2.1	1134.46 ± 2.1	1927.8 ± 3.1	1914.3 ± 3
x1 = 0.6044	0.106 ± 0.006	0.138 ± 0.008	1138.43 ± 2.7	1135.19 ± 2.6	1923.5 ± 3.4	1909.9 ± 3.4
x1 = 0.6931	0.059 ± 0.004	0.073 ± 0.004	1138.13 ± 3.4	1134.84 ± 3.4	1912.9 ± 3.8	–
x1 = 0.7565	–	–	1138.58 ± 4.1	1135.3 ± 4	1909.5 ± 4	–
x1 = 0.798	0.047 ± 0.003	0.053 ± 0.003	–	–	–	–
x1 = 0.8375	–	–	1139.15 ± 5	1135.92 ± 4.9	1908.6 ± 4.4	–
x1 = 0.8996	0.042 ± 0.003	0.056 ± 0.003	1139.75 ± 5.7	1136.57 ± 5.7	1908.1 ± 4.7	–
x1 = 0.94	–	–	1140.05 ± 6.2	1136.9 ± 6.2	1905.4 ± 4.9	–
x1 = 0.9611	–	–	1140.19 ± 6.5	1137.04 ± 6.5	1902.3 ± 5	–
